Measured values reported in patent EP4782450A1, “NOVEL SKELETAL DERIVATIVE EFFECTIVE FOR HER2 MUTATION, AND PHARMACEUTICAL COMPOSITION COMPRISING SAME” (Hanmi Pharm. Co., Ltd., priority 2023, dated 2025).
Like-named read-outs stand apart in the source and are kept apart here.

What was measured:
[1] = test system: wild-type EGFR overexpressing Ba/F3 cells; assay: Growth inhibition of Ba/F3 cells engineered to overexpress wild-type EGFR (CellTiter-Glo luminescence); format: cell-based; settings: concentrations 10000 to 8 nM, read-out: Ba/F3 EGFR^WT GI50 class
Description: (§1) Experimental Example: Growth inhibition of Ba/F3 HER2 A775insYVMA and wild-type Ba/F3 cells
(§2) In this Experimental Example, the compounds obtained in Examples 1 to 92 were evaluated for their ability to inhibit growth of cells harboring either the HER2 A775insYVMA mutation or wild-type EGFR. For this purpose, Ba/F3 cells (ATCC, USA) were genetically engineered to overexpress either HER2 A775_G776insYVMA or wild-type EGFR, and the growth of these engineered Ba/F3 cells were monitored in the presence of the compounds described in the Examples to evaluate their effects on growth inhibition.
(§3) Specifically, culture flasks of the engineered Ba/F3 cells suspended in RPMI 1640 medium supplemented with 10% fetal bovine serum (FBS) and 1% penicillin/streptomycin (Gibco BRL, USA) were placed in a cell incubator and incubated at 37°C and 5% CO2 level to allow them to reach a stable logarithmic growth phase. The cells were then harvested by centrifugation to remove the old media and placed into a 96-well plate by dividing them into 100 µL aliquots per well at a dilution of 1×10^5 cells/mL in fresh media. Each of the compounds prepared in the preceding Examples were dissolved in 99.5% (cell culture grade) dimethylsulfoxide (DMSO) to prepare a stock solution of 10 mM concentration, which were serially diluted in the culture medium to final concentrations of 1000, 200, 40, 8, 1.6 and 0.32 nM for HER2 A775insYVMA Ba/F3 cells and concentrations of 10000, 5000, 1000, 200, 40 and 8 nM for wild-type EGFR overexpressing Ba/F3 cells.
(§4) To each aliquot of cells in the 96-well plate, a 50 µL test solution comprising one of the compounds was added to result in each well a 150 µL volume of cells with a compound in a final concentration ranging from 10 µM to 0.32 nM. The Ba/F3 cells treated with the test solution were incubated for 72 hours at 37°C and 5% CO2 level and underwent a 30-minute acclimation by placing the 96-well plate carrying the cells in ambient temperature. Thereafter, to each well was added 50 µL CellTiter-Glo® Luminescent Cell Assay Reagent (CTG, Promega, USA). After allowing 10 minutes to stabilize the signal, luminescence intensity was measured using a microplate reader. The half-maximal growth inhibition concentration (GI50) was calculated from the luminescence readout of the test compounds with the difference between the initial and final cell densities for the well untreated with a compound set at 100% growth. Nonlinear regression analysis based on log[inhibitor] vs. normalized response mode of the Graph Prism software was used for calculating GI50 for each compound, which are summarized in Table 6. The calculated GI50 values are classified in Table 6 into four categories: A for GI50 values less than 100 nM, B for GI50 values more than 100 nM but less than 1,000 nM, C for GI50 values more than 1,000 nM but less than 5,000 nM, and D for GI50 values of more than 5,000 nM.

Ba/F3 HER2 A775insYVMA = assay: Growth inhibition of Ba/F3 cells engineered to overexpress HER2 A775_G776insYVMA (CellTiter-Glo luminescence); format: cell-based; settings: concentrations 1000 to 0.32 nM, read-out: Ba/F3 HER2^YVMA GI50 class
Description: as §1, §2, §3, §4

Compound | GI50 ([1]; Mus musculus, BaF3, 72 hours) | GI50 (Ba/F3 HER2 A775insYVMA; Mus musculus, BaF3, 72 hours) | GI50 ([1]; 72 hours) | GI50 (Ba/F3 HER2 A775insYVMA; 72 hours)
C=CC(=O)N1CCC[C@@H]1C#Cc1ccc2ncnc(Nc3ccc(Oc4ccn5ncnc5c4)c(C)c3)c2n1 [Example 80, (R)-1-(2-((4-((4-([1,2,4]triazolo[1,5-a]pyridin-7-yloxy)-3-methylphenyl)amino)pyrido[3,2-d]pyrimidin-6-yl)ethynyl)pyrrolidin-1-yl)prop-2-en-1-one] | 100 to 1000 nM | < 100 nM | – | –
C=CC(=O)N1CCCC(/C=C/c2ccc3ncnc(Nc4ccc(Oc5ccc6c(c5)ncn6C)c(C)c4)c3n2)C1 (stereo not shown) [Example 27, (E)-1-(3-(2-(4-((3-methyl-4-((1-methyl-1H-benzo[d]imidazol-5-yl)oxy)phenyl)amino)pyrido[3,2-d]pyrimidin-6-yl)vinyl)piperidin-1-yl)prop-2-en-1-one] | 1000 to 5000 nM | 100 to 1000 nM | – | –
N-(2-((8-((4-([1,2,4]triazolo[1,5-a]pyridin-7-yloxy)-3-methylphenyl)amino)pyrimido[5,4-d]pyrimidin-2-yl)oxy)ethyl)-N-methylacrylamide [Example 4] | – | – | 1000 to 5000 nM | 1000 to 5000 nM
C=CC(=O)N1CCCC[C@@H]1C#Cc1ncc2ncnc(Nc3ccc(Oc4ccc5c(c4)ncn5C)c(C)c3)c2n1 [Example 91, (R)-1-(2-((8-((3-methyl-4-((1-methyl-1H-benzo[d]imidazol-5-yl)oxy)phenyl)amino)pyrimido[5,4-d]pyrimidin-2-yl)ethynyl)piperidin-1-yl)prop-2-en-1-one] | 100 to 1000 nM | 100 to 1000 nM | – | –
C=CC(=O)N(C)CC#Cc1ccc2ncnc(Nc3ccc(Oc4ccn5ncnc5c4)c(C)c3)c2n1 [Example 68, N-(3-(4-((4-([1,2,4]triazolo[1,5-a]pyridin-7-yloxy)-3-methylphenyl)amino)pyrido[3,2-d]pyrimidin-6-yl)prop-2-yn-1-yl)-N-methylacrylamide] | 100 to 1000 nM | < 100 nM | – | –
C=CC(=O)N1CCCC[C@@H]1C#Cc1ccc2ncnc(Nc3ccc(Oc4ccn5ncnc5c4)c(C)c3)c2n1 [Example 82, (R)-1-(2-((4-((4-([1,2,4]triazolo[1,5-a]pyridin-7-yloxy)-3-methylphenyl)amino)pyrido[3,2-d]pyrimidin-6-yl)ethynyl)piperidin-1-yl)prop-2-en-1-one] | 100 to 1000 nM | < 100 nM | – | –
C=CC(=O)N1CCCC[C@H]1C#Cc1ccc2ncnc(Nc3ccc(Oc4ccc5c(c4)ncn5C)c(C)c3)c2n1 [Example 89, (S)-1-(2-((4-((3-methyl-4-((1-methyl-1H-benzo[d]imidazol-5-yl)oxy)phenyl)amino)pyrido[3,2-d]pyrimidin-6-yl)ethynyl)piperidin-1-yl)prop-2-en-1-one] | 1000 to 5000 nM | < 100 nM | – | –
Cc1cc(Nc2ncnc3ccc(/C=C/CN(C)C(=O)/C=C/CN4CCCCC4)nc23)ccc1Oc1ccc2c(c1)ncn2C [Example 61, (E)-N-methyl-N-((E)-3-(4-((3-methyl-4-((1-methyl-1H-benzo[d]imidazol-5-yl)oxy)phenyl)amino)pyrido[3,2-d]pyrimidin-6-yl)allyl)-4-(piperidin-1-yl)but-2-enamide] | 1000 to 5000 nM | < 100 nM | – | –
C=CC(=O)N(C)CC#Cc1cc2c(Nc3ccc(Oc4ccn5ncnc5c4)c(C)c3)ncnc2cc1OC [Example 73, N-(3-(4-((4-([1,2,4]triazolo[1,5-a]pyridin-7-yloxy)-3-methylphenyl)amino)-7-methoxyquinazolin-6-yl)prop-2-yn-1-yl)-N-methylacrylamide] | 1000 to 5000 nM | 1000 to 5000 nM | – | –
C=CC(=O)N(C)CCOc1ccc2ncnc(Nc3ccc(Oc4ccc5c(c4)ncn5C)c(C)c3)c2c1 [Example 5, N-methyl-N-(2-((4-((3-methyl-4-((1-methyl-1H-benzo[d]imidazol-5-yl)oxy)phenyl)amino)quinazolin-6-yl)oxy)ethyl)acrylamide] | > 5000 nM | < 100 nM | – | –
C=CC(=O)N(C)C(C)/C=C/c1ccc2ncnc(Nc3ccc(Oc4ccc5c(c4)ncn5C)c(C)c3)c2n1 (stereo not shown) [Example 50, (E)-N-methyl-N-(4-(4-((3-methyl-4-((1-methyl-1H-benzo[d]imidazol-5-yl)oxy)phenyl)amino)pyrido[3,2-d]pyrimidin-6-yl)but-3-en-2-yl)acrylamide] | 1000 to 5000 nM | < 100 nM | – | –
C=CC(=O)Nc1cccc(/C=C/c2ccc3ncnc(Nc4ccc(Oc5ccc6c(c5)ncn6C)c(C)c4)c3n2)c1 [Example 64, (E)-N-(3-(2-(4-((3-methyl-4-((1-methyl-1H-benzo[d]imidazol-5-yl)oxy)phenyl)amino)pyrido[3,2-d]pyrimidin-6-yl)vinyl)phenyl)acrylamide] | > 5000 nM | 100 to 1000 nM | – | –
N-methyl-N-(2-((8-((3-methyl-4-((1-methyl-1H-benzo[d]imidazol-5-yl)oxy)phenyl)amino)pyrimido[5,4-d]pyrimidin-2-yl)amino)ethyl)acrylamide [Example 16] | – | – | > 5000 nM | 100 to 1000 nM
C=CC(=O)N(C)CC#Cc1ccc2ncnc(Nc3ccc(Oc4ccc5c(c4)ncn5C)c(C)c3)c2n1 [Example 71, N-methyl-N-(3-(4-((3-methyl-4-((1-methyl-1H-benzo[d]imidazol-5-yl)oxy)phenyl)amino)pyrido[3,2-d]pyrimidin-6-yl)prop-2-yn-1-yl)acrylamide] | 1000 to 5000 nM | 100 to 1000 nM | – | –
C=CC(=O)N1CCC[C@@H]1C#Cc1ccc2ncnc(Nc3ccc(Oc4ccc5c(c4)ncn5C)c(C)c3)c2c1 [Example 85, (R)-1-(2-((4-((3-methyl-4-((1-methyl-1H-benzo[d]imidazol-5-yl)oxy)phenyl)amino)quinazolin-6-yl)ethynyl)pyrrolidin-1-yl)prop-2-en-1-one] | 100 to 1000 nM | < 100 nM | – | –
C=CC(=O)N1CC[C@H]1C#Cc1ccc2ncnc(Nc3ccc(Oc4ccn5ncnc5c4)c(C)c3)c2c1 [Example 79, (S)-1-(2-((4-((4-([1,2,4]triazolo[1,5-a]pyridin-7-yloxy)-3-methylphenyl)amino)quinazolin-6-yl)ethynyl)azetidin-1-yl)prop-2-en-1-one] | 1000 to 5000 nM | 1000 to 5000 nM | – | –
C=CC(=O)N(CC)C/C=C/c1ccc2ncnc(Nc3ccc(Oc4ccc5c(c4)ncn5C)c(C)c3)c2n1 [Example 49, (E)-N-ethyl-N-(3-(4-((3-methyl-4-((1-methyl-1H-benzo[d]imidazol-5-yl)oxy)phenyl)amino)pyrido[3,2-d]pyrimidin-6-yl)allyl)acrylamide] | > 5000 nM | < 100 nM | – | –
C=CC(=O)N(C)C/C=C/c1ccc2ncnc(Nc3ccc(Oc4ccc5c(c4)ncn5C)c(C)c3F)c2n1 [Example 42, (E)-N-(3-(4-((2-fluoro-3-methyl-4-((1-methyl-1H-benzo[d]imidazol-5-yl)oxy)phenyl)amino)pyrido[3,2-d]pyrimidin-6-yl)allyl)-N-methylacrylamide] | 1000 to 5000 nM | < 100 nM | – | –
C=CC(=O)N1CC(/C=C/c2ccc3ncnc(Nc4ccc(Oc5ccc6c(c5)ncn6C)c(C)c4F)c3n2)C1 [Example 46] | 1000 to 5000 nM | < 100 nM | – | –
Cc1c(Oc2ccc3c(c2)ncn3C)ccc(Nc2ncnc3ccc(/C=C/CNC(=O)/C=C/CN(C)C)nc23)c1F [Example 41, (E)-4-(dimethylamino)-N-((E)-3-(4-((2-fluoro-3-methyl-4-((1-methyl-1H-benzo[d]imidazol-5-yl)oxy)phenyl)amino)pyrido[3,2-d]pyrimidin-6-yl)allyl)but-2-enamide] | 1000 to 5000 nM | < 100 nM | – | –
